# Results from publication PMC9837035 (Nature Communications, 2023).
# Values joined by “and” are separate entries in the source; they are usually repeats but may differ in a detail not shown here. Equal entries are not always repeated. Where two headings read alike, the source gives them in different places.
# Tests used:
# [1] = test system: CD34+ cells; test: Cell viability of CD34+ cells by cell counting; type: cell-based, human; conditions: for cell viability: CD34+ cells, 10 days
# Procedure: (§1) HUDEP-2 cells and HiDEP-1 cells were grown in Stemline II Hematopoietic Stem Cell Expansion Medium (Sigma) supplemented with 50 ng/mL recombinant stem cell factor (SCF; R&D systems), 3 IU/mL recombinant erythropoietin (EPO; Kyowa Kirin), 1 μM dexamethasone (Dex; Sigma), and 1 μg/mL doxycycline (Sigma). A total of 1 × 10^5 human CD34^+ progenitor cells derived from bone marrow or peripheral blood (Lonza) were cultured on 35-mm dishes (BD Falcon) in StemSpan SFEMII medium with 50 ng/mL SCF, 5 IU/mL EPO, and 10 ng /mL interleukin 3 (IL-3; R&D systems). The medium was changed on day 4 to SCF, EPO, and 1 μM Dex, and the cells were transferred to 60-mm dishes (BD Falcon). Seven days after the onset of differentiation, cells were counted and 1 × 10^6 cells were re-plated on 100-mm dishes (BD Falcon) with SCF, EPO, and Dex. The rat myoblast cell line H9c2, HEK293T, and PLAT-E cells were maintained in Dulbecco’s modified Eagle’s medium (Thermo Fisher Scientific) supplemented with 10% heat-inactivated fetal bovine serum (FBS) and penicillin/streptomycin. All cells were cultured at 37 °C under 5% CO2.
# [2] = test system: BGLT3 RNA in CD34+ cells; test: RT-qPCR of BGLT3 in CD34+ cells; type: cell-based, human; conditions: for BGLT3 expression in CD34+ cells treated with hydroxyurea: relative to DMSO = 1, replicate values; for BGLT3 expression: primary human CD34+ cells
# Procedure: as §1
# Total cellular RNA was prepared using the Tissue Total RNA Mini Kit (FAVORGEN), and cDNA was synthesized using ReverTra Ace Master Mix (TOYOBO). Expression of target genes was analyzed using THUNDERBIRD SYBR qPCR Mix (TOYOBO) on a CFX Connect Real Time System (Bio-Rad). The qPCR data were acquired on CFX Maestro (Bio-Rad). Primers are listed in Supplementary Table 10. GAPDH was used as a reference. Primers were purchased from INTEGRATED DNA TECHNOLOGIES or FASMAC.
# [3] = molecular target: T1, G9a SET domain (Homo sapiens, UniProt Q96KQ7); test: Surface plasmon resonance (SPR); type: binding
# T1 construct: the human G9a SET domain (residues 913–1193) was synthesized using the E. coli cell-free synthesis method; made in house; host or cells: E. coli cell-free synthesis
# T1 sequence (Q96KQ7 913-1193): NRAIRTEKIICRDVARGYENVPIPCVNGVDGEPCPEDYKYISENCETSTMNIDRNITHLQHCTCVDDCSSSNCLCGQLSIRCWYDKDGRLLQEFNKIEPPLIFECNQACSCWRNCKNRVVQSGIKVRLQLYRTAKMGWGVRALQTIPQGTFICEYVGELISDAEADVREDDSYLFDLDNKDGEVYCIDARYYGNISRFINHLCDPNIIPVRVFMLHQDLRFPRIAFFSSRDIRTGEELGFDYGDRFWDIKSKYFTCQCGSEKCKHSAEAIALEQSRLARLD
# Procedure: For crystal structure analysis, the human G9a SET domain (residues 913–1193) was synthesized using the E. coli cell-free synthesis method[48],[49] and purified in the same manner as described previously, except that the final size-exclusion column chromatography using HiLoad Superdex 200 16/60 (GE Healthcare) was equilibrated with 20 mM Tris-HCl buffer (pH 8.0) containing 400 mM NaCl. […] Crystals were grown by the hanging drop method at 293 K, where the sample solution was mixed with an equal volume of a reservoir solution containing 100 mM Bis-Tris propane (pH 7.4), 200 mM sodium formate, 10% ethylene glycol, and 25% PEG 3350. The harvested crystals were coated with Paratone-N oil (Hampton Research) before being flash-cooled in liquid nitrogen. Diffraction data were collected at the X06DA beamline of the Swiss Light Source, Paul Scherrer Institut (Villigen, Switzerland), and were processed and scaled with XDS[51], AIMLESS[52], and other CCP4 programs. The structure of G9a with UNC0638 (PDB ID: 3RJW)[23] was used for the initial phase determination by the molecular replacement method with Phaser[53]. The topology and parameter file for the inhibitor was generated with eLBOW[54] from SMILES strings. Structure refinement was carried out with Phenix[55] and manual model building using COOT[56]. Crystallographic statistics are summarized in Supplementary Table 3.
# SPR was performed using a Biacore T200 (Cytiva) and Series S Sensorchip SA (Cytiva, BR100531) at the temperature of 25 °C. A solution of PBS, 0.005% TWEEN20 (Sigma, P9416), 0.5 mM TCEP (Nacalai Tesque, 06342-21), and 2% DMSO (Sigma, 276855) was filtered with a 0.22-μm filter and used as the running buffer. Kinetic measurements were carried out at a flow rate of 30 μL/min, and the association and dissociation phases were monitored for 120 s and 120–300 s, respectively. The G9a SET domain was biotinylated by using NHS-PEG4-Biotin (Thermo, 39259), and captured to flow cells 2, 3, and 4 with immobilization levels of ~2300 RU. No specific treatment was applied to the reference surface (flow cell 1). To prevent oxidation of the immobilized protein, a solution containing 1 μM ZnCl2 and 5 mM TCEP was injected at a flow rate of 10 μL/min for 60 s before each set of kinetic measurements. The extra wash command was executed after each measurement cycle with 50% DMSO aqueous solution. To correct for bulk responses, solvent correction was performed once after all kinetics runs by using running buffer containing 1–3% DMSO. The sensorgrams obtained from the three flow cells were analyzed individually by Biacore T200 Evaluation Software (Cytiva). The dissociation constant (KD) and binding kinetic parameters were calculated by a curve fit to a built-in 1:1 binding model.
# [4] = molecular target: T2, DNMT3b/3L (Homo sapiens, UniProt Q9UBC3); test: Radioisotope-based methyltransferase assay (selectivity); type: biochemical
# T2 construct: purchased Reaction Biology
# [5] = single run, read-out: Dissociation constant (Kd)
smiles,measurement,setting,value
"NC(=O)NO [Hydroxyurea, hydroxyurea]",Cell viability in CD34+ cells,[1]; 10 μM,3.83 10*7 cells and 4.25 10*7 cells and 4.44 10*7 cells
same,Cell viability in CD34+ cells,[1]; 50 μM,1.8 10*7 cells and 1.47 10*7 cells and 1.48 10*7 cells
same,cell viability,[1],severe cytotoxicity
same,BGLT3 expression in CD34+ cells treated with hydroxyurea,"[2]; DAY7, 10 μM",1.048 and 1.203 and 1.026
same,BGLT3 expression in CD34+ cells treated with hydroxyurea,"[2]; DAY7, 50 μM",1.743 and 1.82 and 2.054
same,BGLT3 expression in CD34+ cells treated with hydroxyurea,"[2]; DAY9, 10 μM",1.52 and 1.518 and 1.0769
same,BGLT3 expression in CD34+ cells treated with hydroxyurea,"[2]; DAY9, 50 μM",2.568 and 2.893 and 2.233
same,BGLT3 expression,[2],promoted BGLT3 expression
Cc1c(C(=O)NC(CCC2CC2)C(=O)Nc2ccc(C#N)cc2)[nH]c2c1C(=O)CC(C)(C)C2 (stereo not drawn) [RK-701],Cell viability in CD34+ cells,[1]; 0.01 μM,4.59 10*7 cells and 4.56 10*7 cells and 4.57 10*7 cells
same,Cell viability in CD34+ cells,[1]; 0.03 μM,4.39 10*7 cells and 4.41 10*7 cells and 4.97 10*7 cells
same,Cell viability in CD34+ cells,[1]; 0.1 μM,4.54 10*7 cells and 4.45 10*7 cells and 4.75 10*7 cells
same,Cell viability in CD34+ cells,[1]; 0.3 μM,4.11 10*7 cells and 4.64 10*7 cells and 4.5 10*7 cells
same,Cell viability in CD34+ cells,[1]; 1 μM,4.01 10*7 cells and 4.28 10*7 cells and 4.43 10*7 cells
same,Cell viability in CD34+ cells,[1]; 3 μM,4.31 10*7 cells and 4.53 10*7 cells and 4.47 10*7 cells
same,cell viability,[1],without affecting cell viability
same,BGLT3 expression,[2],induced BGLT3 expression
same,binding to G9a by SPR,[3],reversible binding
same,Kd,"[3]; absence of SAM, read-out: Kd",750 nM
same,Kd,"[3]; earlier SPR conditions, peer review file, read-out: Kd before re-analysis",2400 nM
same,Kd,[3]; [5],743 nM and 731 nM and 761 nM
same,IC50,[4]; 1 μM SAM,> 100000 nM
same,IC50,[4]; RK-701 in duplicate,> 100000 nM
Cc1c(C(=O)N[C@H](CCC2CC2)C(=O)Nc2ccc(C#N)cc2)[nH]c2c1C(=O)CC(C)(C)C2 [RK-0133114],binding to G9a by SPR,[3],failed to detect the binding
same,Kd,"[3]; mean of three kinetics runs, read-out: KD",> 20000 nM
same,Kd,[3]; [5],> 20000 nM
"Nc1ncnc2c1ncn2[C@@H]1O[C@H](CSCC[C@H](N)C(=O)O)[C@@H](O)[C@H]1O [SAH, S-(5'-Adenosyl)-L-homocysteine, reference compound]",IC50,[4]; 1 μM SAM,50 nM
same,IC50,[4]; RK-701 in duplicate,54.2 nM
